Here are results for nine molecules from PubChem BioAssay (NCI).

Test systems include EKVX NSCLC; HCC-2998 colon; HCT-116 colon; HOP-62 NSCLC; KM12 colon; MCF7 breast; MDA-MB-231 breast; NCI-H460 lung; OVCAR-5 ovarian; SK-MEL-28 melanoma; SNB-19 CNS; SNB-75 CNS; SR leukemia; TK-10 renal; U251 CNS; UACC-62 melanoma; COLO 205 colon; SF-268 CNS; MDA-MB-435.
Holding throughout (experiment): DTP human tumour cell line panel, 48 h

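48-hour exposure; five concentrations; linearly interpolated endpoints. TGI marks complete inhibition of growth.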

For orientation: TGI means the concentration at which net growth stops. A low value points to more potent growth arrest. In the case of `COC(=O)C1CCCN1C(=O)C(Cc1cn(S(=O)(=O)c2ccc(C)cc2)cn1)NC(=O)OC(C)(C)C` (stereo not drawn), the TGI in the experiment with EKVX NSCLC, in the experiment with HCC-2998 colon, in the experiment on HCT-116 colon, with HOP-62 NSCLC, in the experiment with KM12 colon and in the experiment with MCF7 breast was > 100 µM in each case. Also, the TGI in the experiment with MDA-MB-231 breast, in the experiment with NCI-H460 lung, with OVCAR-5 ovarian, in the experiment on SK-MEL-28 melanoma, with SNB-19 CNS and in the experiment on SNB-75 CNS was > 100 µM each time. Further, the TGI in the experiment on SR leukemia, with TK-10 renal, in the experiment with U251 CNS and in the experiment on UACC-62 melanoma was > 100 µM in each case.
For the molecule `OCc1ccc(C2CC(c3ccco3)=NN2c2ccccc2)o1` (stereo not drawn), the TGI in the experiment with COLO 205 colon, in the experiment on EKVX NSCLC, with HCT-116 colon, in the experiment with HOP-62 NSCLC, in the experiment on KM12 colon and in the experiment with NCI-H460 lung was > 100 µM in each case. In addition, the TGI with OVCAR-5 ovarian, with SF-268 CNS, in the experiment on SK-MEL-28 melanoma, in the experiment with SNB-19 CNS, in the experiment on SNB-75 CNS and in the experiment with SR leukemia was > 100 µM in each case. The TGI in the experiment with TK-10 renal, with U251 CNS and in the experiment on UACC-62 melanoma was > 100 µM in each case.
With `O=C(CN(c1ccccc1)c1ccccc1)n1nnc2ccccc21`, the TGI in the experiment with COLO 205 colon is > 100 µM; in the experiment on EKVX NSCLC, > 100 µM; in the experiment on HCC-2998 colon, > 100 µM; in the experiment with HCT-116 colon it was 84.7 µM; in the experiment with HOP-62 NSCLC it was > 100 µM; with NCI-H460 lung, > 100 µM. For the same molecule, the TGI with OVCAR-5 ovarian, in the experiment on SF-268 CNS, with SK-MEL-28 melanoma, in the experiment with SNB-19 CNS, in the experiment on SNB-75 CNS and with SR leukemia was > 100 µM each time. The TGI in the experiment with TK-10 renal, with U251 CNS and in the experiment with UACC-62 melanoma was > 100 µM throughout.
For the molecule `Cc1ccc(O)c(-c2cscn2)c1`, the TGI in the experiment on COLO 205 colon, in the experiment with EKVX NSCLC, in the experiment on HCC-2998 colon, with HCT-116 colon, in the experiment with HOP-62 NSCLC and in the experiment on MCF7 breast was > 100 µM in each case. Besides, the TGI with MDA-MB-435, with NCI-H460 lung, in the experiment on OVCAR-5 ovarian, in the experiment on SNB-19 CNS, in the experiment on SR leukemia and with TK-10 renal was > 100 µM in each case. For the same molecule, the TGI in the experiment on UACC-62 melanoma is > 100 µM.
Consider `CSc1ncnc2c1ncn2CCC#N`, for which the TGI with COLO 205 colon, in the experiment on EKVX NSCLC, in the experiment on HCT-116 colon, in the experiment on HOP-62 NSCLC, in the experiment on KM12 colon and in the experiment on MCF7 breast was > 100 µM in each case. The total growth inhibition concentration (TGI) with MDA-MB-231 breast, in the experiment with MDA-MB-435, in the experiment with NCI-H460 lung, with OVCAR-5 ovarian, with SF-268 CNS and in the experiment on SK-MEL-28 melanoma was > 100 µM each time. Also, the TGI in the experiment with SNB-19 CNS, in the experiment with SNB-75 CNS, with SR leukemia and with TK-10 renal was > 100 µM each time.
Turning to `COc1cc2c3c(c1OC)C1(C=CC(=O)C=C1)C[C@H]3N(C)CC2`, the TGI in the experiment with COLO 205 colon, in the experiment with EKVX NSCLC, in the experiment on HCC-2998 colon, in the experiment with HCT-116 colon, in the experiment on KM12 colon and in the experiment on NCI-H460 lung was > 100 µM in each case. For the same molecule, the TGI in the experiment with OVCAR-5 ovarian, with SF-268 CNS, in the experiment on SK-MEL-28 melanoma, in the experiment on SNB-19 CNS, in the experiment on SNB-75 CNS and in the experiment with SR leukemia was > 100 µM each time. Also, the TGI with TK-10 renal, with U251 CNS and with UACC-62 melanoma was > 100 µM throughout.
For `CCCCN=C(c1ccccc1)N1CCOCC1`, the TGI in the experiment on COLO 205 colon, in the experiment with EKVX NSCLC, with HCT-116 colon, in the experiment with HOP-62 NSCLC, in the experiment on KM12 colon and with MCF7 breast was > 100 µM in each case. In addition, the TGI with MDA-MB-231 breast, in the experiment on MDA-MB-435, in the experiment on NCI-H460 lung, in the experiment on OVCAR-5 ovarian, in the experiment with SF-268 CNS and with SK-MEL-28 melanoma was > 100 µM throughout. Further, the TGI in the experiment with SNB-19 CNS is > 100 µM; with SNB-75 CNS, 83.5 µM; with SR leukemia, > 100 µM; with TK-10 renal it was > 100 µM; in the experiment on U251 CNS it was > 100 µM; with UACC-62 melanoma it was > 100 µM.
Regarding `CC1CCCC(CC(=O)O)(CC(=O)O)C1` (stereo not drawn), the TGI in the experiment on COLO 205 colon, in the experiment with EKVX NSCLC, with HCC-2998 colon, in the experiment on HCT-116 colon, in the experiment with KM12 colon and with MCF7 breast was > 100 µM throughout. Moreover, the TGI in the experiment on MDA-MB-231 breast, with MDA-MB-435, in the experiment with NCI-H460 lung, with OVCAR-5 ovarian, in the experiment with SF-268 CNS and with SK-MEL-28 melanoma was > 100 µM throughout. Moreover, the TGI with SNB-19 CNS, with SR leukemia, in the experiment on TK-10 renal, in the experiment on U251 CNS and with UACC-62 melanoma was > 100 µM each time.
With `CC(=O)O[C@]12CCCCCC1C1(O)C(O)CCCC[C@H]12` (stereo partly drawn), the TGI with COLO 205 colon, in the experiment with EKVX NSCLC, in the experiment on HOP-62 NSCLC, in the experiment with KM12 colon, with NCI-H460 lung and in the experiment with SF-268 CNS was > 100 µM throughout. Besides, the TGI in the experiment with SK-MEL-28 melanoma, in the experiment on SNB-19 CNS, in the experiment on SNB-75 CNS, with SR leukemia, in the experiment with TK-10 renal and with U251 CNS was > 100 µM each time. Further, the TGI in the experiment on UACC-62 melanoma is > 100 µM.
